Experimental data published in patent publication US20160324916A1, “PROCESS FOR THE SYNCHRONIZATION OF OVULATION FOR TIMED BREEDING WITHOUT HEAT DETECTION” (priority 2003, published 2016).

How the values were obtained:
postpartum sows = assay: Single timed injection 96 hours post-weaning and single timed insemination without estrus detection in postpartum sows (Example 3); type: in vivo, swine; conditions: 50 mcg in SAIB 96 hours post-weaning, single timed insemination, no estrus detection
Method: Approximately 170 postpartum sows were randomly divided into two equal groups comprised of controls and treated. Following weaning, the controls were detected for estrus and bred following the normal standard operating procedures for the farms on which they resided. The treated sows received a 50 mcg dose of deslorelin in SAIB at 96 hours post-weaning and were bred with a single insemination 28+/−2 hours later with no regard to estrus detection. The sows were examined for pregnancy by ultrasound at 21 days and slaughtered around 28 days post breeding. The entire reproductive tract was removed and corpora lutea and embryos were counted.

mature postpartum sows = assay: Intravulvar injection at estrus detection in mature postpartum sows, AI breeding (Example 2); type: in vivo, swine; conditions: 50 mcg intravulvar at estrus detection
Method: Sows were assigned randomly in blocks of two to either control or to be injected intravulvar with 50 mcg of deslorelin in SAIB at the time of estrus detection for sows first detected in estrus in the a.m. and 12 hours later for those first detected in estrus in the p.m. Treated animals were bred AI upon detected estrus and again 24 hours later if still in estrus. Controls received a saline injection on first detected estrus behavior estrus detection and were bred according to the farm's normal procedures.

**Q.** With CCNC(=O)[C@@H]1CCCN1C(=O)[C@H](CCCN=C(N)N)NC(=O)[C@H](CC(C)C)NC(=O)[C@@H](Cc1c[nH]c2ccccc12)NC(=O)[C@H](Cc1ccc(O)cc1)NC(=O)[C@H](CO)NC(=O)[C@H](Cc1c[nH]c2ccccc12)NC(=O)[C@H](Cc1cnc[nH]1)NC(=O)[C@@H]1CCC(=O)N1 [Deslorelin, deslorelin] as the compound, how does the “Pregnancy Rate” value (postpartum sows) read?
**A.** 71%

**Q.** What about the “Pregnancy rates, Control versus Treated” value (mature postpartum sows) of the same compound?
**A.** no significant difference
